# From patent US11492335B2, “Aryl or heteroaryl triazolone derivatives or salts thereof, or pharmaceutical compositions comprising the same” (YUHAN CORPORATION, priority 2018, dated 2022)
# Structures can show the parent of a compound that is named as a salt. Where two headings read alike, the source gives them in different places.
# How the values were obtained:
# Assay type in all cases: biochemical
# [1] = target: T1, recombinant human MAO-A (monoamine oxidase-A) (Homo sapiens, UniProt P21397); experiment: Activity on recombinant human MAO-A, Amplex Red method, 0.5 mM tyramine substrate; conditions: read-out: Inhibitory Activity (IC50, nM) MAO-A
# T1 construct: purchased Sigma-Aldrich
# T1 sequence (P21397 1-527): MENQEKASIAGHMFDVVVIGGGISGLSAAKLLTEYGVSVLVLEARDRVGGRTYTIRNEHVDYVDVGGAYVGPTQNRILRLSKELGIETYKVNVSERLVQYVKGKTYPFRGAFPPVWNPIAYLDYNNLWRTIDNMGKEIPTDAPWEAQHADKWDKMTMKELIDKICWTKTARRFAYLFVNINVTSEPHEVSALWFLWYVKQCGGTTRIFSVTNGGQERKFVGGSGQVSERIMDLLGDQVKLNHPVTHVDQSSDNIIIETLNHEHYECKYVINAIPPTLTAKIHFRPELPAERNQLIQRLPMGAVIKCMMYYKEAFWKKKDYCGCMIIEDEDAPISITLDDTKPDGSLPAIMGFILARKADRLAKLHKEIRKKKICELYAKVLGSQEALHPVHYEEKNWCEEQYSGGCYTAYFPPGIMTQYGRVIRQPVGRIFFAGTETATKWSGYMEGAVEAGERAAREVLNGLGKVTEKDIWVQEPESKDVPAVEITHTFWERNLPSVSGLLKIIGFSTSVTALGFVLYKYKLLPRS
# In short: (§1)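 HRP-coupled Amplex Red H2O2 assay, 50 mM sodium phosphate pH 7.4; compounds (8-point 1:3 series, final DMSO <1%) preincubated with enzyme 30 min at 37° C, then 200 uM Amplex Red, 1 U/mL HRP and substrate (MAO-A 0.5 mM tyramine; MAO-B 1 mM benzylamine) added. Resorufin fluorescence (ex 544/em 590 nm) read over 1-2 h; IC50 from four-parameter logistic fit.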
# [2] = target: T2, recombinant human DAO (diamine oxidase) (Homo sapiens, UniProt P19801); experiment: Activity on recombinant human DAO, Amplex Red method, 1 mM putrescine substrate; conditions: recombinant human DAO, read-out: Inhibitory Activity (IC50, nM) DAO
# T2 construct: purchased R&D systems
# T2 sequence (P19801 20-751): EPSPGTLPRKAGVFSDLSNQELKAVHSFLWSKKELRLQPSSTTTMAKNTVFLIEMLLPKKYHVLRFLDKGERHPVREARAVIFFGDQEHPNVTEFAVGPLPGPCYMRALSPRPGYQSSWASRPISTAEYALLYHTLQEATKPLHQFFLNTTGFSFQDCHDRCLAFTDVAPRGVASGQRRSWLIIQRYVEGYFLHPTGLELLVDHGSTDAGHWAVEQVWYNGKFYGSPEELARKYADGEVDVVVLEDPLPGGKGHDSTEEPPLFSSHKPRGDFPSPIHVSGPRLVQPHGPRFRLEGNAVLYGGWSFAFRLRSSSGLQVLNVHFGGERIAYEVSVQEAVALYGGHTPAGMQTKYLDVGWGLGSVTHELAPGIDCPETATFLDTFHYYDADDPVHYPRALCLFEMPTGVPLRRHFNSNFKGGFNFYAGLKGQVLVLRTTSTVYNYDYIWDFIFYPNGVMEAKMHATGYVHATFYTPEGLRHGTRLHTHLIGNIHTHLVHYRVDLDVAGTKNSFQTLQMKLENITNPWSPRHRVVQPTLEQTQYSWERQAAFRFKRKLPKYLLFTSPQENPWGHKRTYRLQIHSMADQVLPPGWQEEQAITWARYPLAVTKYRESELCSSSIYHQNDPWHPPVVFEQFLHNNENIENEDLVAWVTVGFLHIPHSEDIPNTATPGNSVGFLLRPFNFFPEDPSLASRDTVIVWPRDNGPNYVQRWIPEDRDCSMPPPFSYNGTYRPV
# In short: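 Inhibition of recombinant human DAO (diamine oxidase, R&D systems) was assessed with the Amplex Red Hydrogen Peroxide Assay Kit. Hydrogen peroxide produced from 1 mM putrescine was detected through an HRP-coupled reaction that converts Amplex Red into fluorescent resorufin, read at 544 nm excitation and 590 nm emission. IC50 values came from four-parameter logistic fits in GraphPad Prism.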
# [3] = target: T3, recombinant human MAO-B (monoamine oxidase-B) (Homo sapiens, UniProt P27338); experiment: Activity on recombinant human MAO-B, Amplex Red method, 1 mM benzylamine substrate; conditions: read-out: Inhibitory Activity (IC50, nM) MAO-B
# T3 construct: purchased Sigma-Aldrich
# T3 sequence (P27338 1-520): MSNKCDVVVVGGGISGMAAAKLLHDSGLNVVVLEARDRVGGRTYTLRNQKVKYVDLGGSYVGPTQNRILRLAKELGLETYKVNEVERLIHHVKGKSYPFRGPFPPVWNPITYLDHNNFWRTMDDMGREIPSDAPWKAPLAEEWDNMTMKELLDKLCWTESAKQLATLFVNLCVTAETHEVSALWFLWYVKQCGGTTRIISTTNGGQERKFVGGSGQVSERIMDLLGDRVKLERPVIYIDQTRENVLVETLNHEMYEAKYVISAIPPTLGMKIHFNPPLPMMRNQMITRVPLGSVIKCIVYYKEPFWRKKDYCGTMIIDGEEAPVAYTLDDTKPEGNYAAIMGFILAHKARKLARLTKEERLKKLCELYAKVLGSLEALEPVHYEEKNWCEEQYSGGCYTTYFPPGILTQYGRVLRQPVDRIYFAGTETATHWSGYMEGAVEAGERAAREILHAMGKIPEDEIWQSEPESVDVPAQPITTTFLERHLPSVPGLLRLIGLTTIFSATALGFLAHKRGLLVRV
# In short: as §1
# recombinant human VAP-1 = target: T4, recombinant human VAP-1 (Homo sapiens, UniProt Q16853); experiment: Activity on recombinant human VAP-1, Amplex Red HRP-coupled hydrogen peroxide assay, benzylamine substrate; conditions: recombinant human VAP-1, benzylamine substrate, read-out: Inhibitory Activity (IC50, nM) human VAP-1
# T4 construct: purchased R&D systems
# T4 sequence (Q16853 1-763): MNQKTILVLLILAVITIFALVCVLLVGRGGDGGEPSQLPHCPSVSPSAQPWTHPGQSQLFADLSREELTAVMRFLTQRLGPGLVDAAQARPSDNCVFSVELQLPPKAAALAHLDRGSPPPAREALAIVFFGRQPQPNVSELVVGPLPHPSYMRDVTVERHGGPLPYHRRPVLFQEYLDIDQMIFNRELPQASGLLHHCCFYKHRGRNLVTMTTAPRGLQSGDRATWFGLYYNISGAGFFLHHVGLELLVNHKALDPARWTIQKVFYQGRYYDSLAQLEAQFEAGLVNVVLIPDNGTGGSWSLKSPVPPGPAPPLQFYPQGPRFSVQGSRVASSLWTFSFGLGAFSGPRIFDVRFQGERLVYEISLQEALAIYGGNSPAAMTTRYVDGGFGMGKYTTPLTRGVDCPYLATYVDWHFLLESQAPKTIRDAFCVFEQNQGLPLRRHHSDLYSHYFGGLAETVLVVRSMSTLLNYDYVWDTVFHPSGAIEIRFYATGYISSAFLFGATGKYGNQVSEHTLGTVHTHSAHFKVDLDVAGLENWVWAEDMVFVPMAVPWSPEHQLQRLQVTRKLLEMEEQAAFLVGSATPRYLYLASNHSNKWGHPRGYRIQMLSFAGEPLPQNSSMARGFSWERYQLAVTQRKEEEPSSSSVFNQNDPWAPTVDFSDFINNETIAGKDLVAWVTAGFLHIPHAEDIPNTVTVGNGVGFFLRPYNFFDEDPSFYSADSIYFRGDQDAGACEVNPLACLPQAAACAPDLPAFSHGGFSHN
# In short: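 8-point 1:3 dilutions, final DMSO <1%; 30 min enzyme preincubation, 37 °C, pH 7.4 phosphate. Start: 1 mM benzylamine + 200 uM Amplex Red + 1 U/mL HRP. Read ex544/em590 over 1-2 h; % rate decrease vs DMSO control, 4-parameter logistic IC50.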
# [4] = 1 mM putrescine, * = between 10 and 100 nM, ** = between 300 and 1000 nM
SMILES,IC50 ([1]; 0.5 mM tyramine substrate),IC50 ([2]; 1 mM putrescine substrate),IC50 ([3]; 1 mM benzylamine substrate),IC50 (recombinant human VAP-1),IC50 ([1]; 0.5 mM tyramine),"IC50 [2, 4]",IC50 ([3]; 1 mM benzylamine),IC50 (recombinant human VAP-1; 30 min preincubation at 37° C.)
"CN1C(=O)CCc2cc(-c3cccc(-n4cnn(C/C(=C/F)CN)c4=O)n3)ccc21 [Example 198, 6-[6-[1-[(E)-2-(aminomethyl)-3-fluoro-allyl]-5-oxo-1,2,4-triazol-4-yl]-2-pyridyl]-1-methyl-3,4-dihydroquinolin-2-one hydrochloride]",> 100000 nM,130 nM,> 10000 nM,2.9 nM,,,,
"Cc1cc(-n2cnn(C/C(=C/F)CN)c2=O)cnc1-c1ccc2c(c1)OCO2 [Example 117, 2-[(2E)-2-(aminomethyl)-3-fluoroprop-2-en-1-yl]-4-[6-(1,3-benzodioxol-5-yl)-5-methylpyridin-3-yl]-2,4-dihydro-3H-1,2,4-triazol-3-one]",,,,,> 100000 nM,2.5 nM,32 nM,0.21 nM
"COc1ccc(-c2cccc(-n3cnn(C/C(=C/F)CN)c3=O)c2)cn1 [Example 83, 2-[(2E)-2-(aminomethyl)-3-fluoroprop-2-en-1-yl]-4-[3-(6-methoxypyridin-3-yl)phenyl]-2,4-dihydro-3H-1,2,4-triazol-3-one hydrochloride]",,,,,> 100000 nM,< 30 nM,2460 nM,0.88 nM
"NC/C(=C\F)Cn1ncn(-c2cccc(-c3ccc4sc(N)nc4c3)n2)c1=O [Example 196, 4-[6-(2-amino-1,3-benzothiazol-5-yl)pyridin-2-yl]-2-[(2E)-2-(aminomethyl)-3-fluoroprop-2-en-1-yl]-2,4-dihydro-3H-1,2,4-triazol-3-one]",> 100000 nM,11 nM,> 10000 nM,1.1 nM,,,,
"CC(=O)N1CCN(c2ccc(-c3cccc(-n4cnn(C/C(=C/F)CN)c4=O)c3)cc2)CC1 [Example 72, 4-[4′-(4-acetylpiperazine-1-yl)biphenyl-3-yl]-2-[(2E)-2-(aminomethyl)-3-fluoroprop-2-en-1-yl]-2,4-dihydro-3H-1,2,4-triazol-3-one hydrochloride]",,,,,4890 nM,59 nM,1460 nM,1.1 nM
"Cc1cc(-c2ccc3c(c2)NC(=O)OC3)cnc1-n1cnn(C/C(=C/F)CN)c1=O [Example 156, 7-(6-{1-[(2E)-2-(aminomethyl)-3-fluoroprop-2-en-1-yl]-5-oxo-1,5-dihydro-4H-1,2,4-triazol-4-yl}-5-methylpyridin-3-yl)-1,4-dihydro-2H-3,1-benzoxazin-2-one hydrochloride]",> 100000 nM,38 nM,26000 nM,0.3 nM,,,,
"Cc1ccc(-c2cccc(-n3cnn(C/C(=C/F)CN)c3=O)c2)c2cccnc12 [Example 105, 2-[(2E)-2-(aminomethyl)-3-fluoroprop-2-en-1-yl]-4-[3-(8-methylquinolin-5-yl)phenyl]-2,4-dihydro-3H-1,2,4-triazol-3-one hydrochloride]",,,,,65200 nM,180 nM,9640 nM,0.83 nM

# Second part, the compound after the results:
IC50 ([1]; 0.5 mM tyramine substrate),IC50 ([2]; 1 mM putrescine substrate),IC50 ([3]; 1 mM benzylamine substrate),IC50 (recombinant human VAP-1),IC50 ([1]; 0.5 mM tyramine),"IC50 [2, 4]",IC50 ([3]; 1 mM benzylamine),IC50 (recombinant human VAP-1; 30 min preincubation at 37° C.),SMILES
> 100000 nM,< 100 nM,49 nM,1.9 nM,,,,,"NC/C(=C\F)Cn1ncn(-c2cnc(-c3ccc(-c4nc[nH]n4)cc3)cn2)c1=O [Example 218, 2-[(2E)-2-(aminomethyl)-3-fluoroprop-2-en-1-yl]-4-{5-[4-(1H-1,2,4-triazol-3-yl)phenyl]pyrazin-2-yl}-2,4-dihydro-3H-1,2,4-triazol-3-one]"
> 100000 nM,4200 nM,> 10000 nM,88 nM,,,,,"Cc1ccc(-c2ccc3c(c2)NC(=O)CO3)nc1-n1cnn(C/C(=C/F)CN)c1=O [Example 216, 6-(6-{1-[(2E)-2-(aminomethyl)-3-fluoroprop-2-en-1-yl]-5-oxo-1,5-dihydro-4H-1,2,4-triazol-4-yl}-5-methylpyridin-2-yl)-2H-1,4-benzoxazin-3 (4H)-one hydrochloride]"
,,,,> 100000 nM,1100 nM,> 10000 nM,3.7 nM,"NC/C(=C\F)Cn1ncn(-c2ccc(F)cc2)c1=O [Example 6, 2-[(2E)-2-(aminomethyl)-3-fluoroprop-2-en-1-yl]-4-(4-fluorophenyl)-2,4-dihydro-3H-1,2,4-triazol-3-one hydrochloride]"
,,,,710 nM,85 nM,9.8 nM,2.2 nM,"Cc1cc(-n2cnn(C/C(=C\F)CN)c2=O)ccc1Br [Example 15, 2-[(2Z)-2-(aminomethyl)-3-fluoroprop-2-en-1-yl]-4-(4-bromo-3-methylphenyl)-2,4-dihydro-3H-1,2,4-triazol-3-one]"
3140 nM,1.6 nM,17 nM,1.6 nM,,,,,"NC/C(=C\F)Cn1ncn(-c2ncc(-c3ccc4c(c3)OCO4)cc2F)c1=O [Example 162, 2-[(2E)-2-(aminomethyl)-3-fluoroprop-2-en-1-yl]-4-[5-(1,3-benzodioxol-5-yl)-3-fluoropyridin-2-yl]-2,4-dihydro-3H-1,2,4-triazol-3-one hydrochloride]"
